Assay results published in ChEMBL document CHEMBL4834434, “Discovery of Novel and Potent N-Methyl-d-aspartate Receptor Positive Allosteric Modulators with Antidepressant-like Activity in Rodent Models” (J Med Chem, 2021).
Activity calls are given as the source filed them. The calls are words filed in the database; no cut-off is given here.

Tests used:
[1] = target: T1, hERG (KCNH2) (Homo sapiens, UniProt Q12809); test: Inhibition of human ERG expressed in CHO cells at 100 uM with holding potential at -80 to -60 mV for 500s followed by raise in potential at +30 mV for 2 sec and subsequent repolarization to -60 mV for 2 sec by whole-cell patch clamp method relative to control; type: cell-based; settings: CHO cells expressing human ERG
T1 sequence (Q12809 whole entry): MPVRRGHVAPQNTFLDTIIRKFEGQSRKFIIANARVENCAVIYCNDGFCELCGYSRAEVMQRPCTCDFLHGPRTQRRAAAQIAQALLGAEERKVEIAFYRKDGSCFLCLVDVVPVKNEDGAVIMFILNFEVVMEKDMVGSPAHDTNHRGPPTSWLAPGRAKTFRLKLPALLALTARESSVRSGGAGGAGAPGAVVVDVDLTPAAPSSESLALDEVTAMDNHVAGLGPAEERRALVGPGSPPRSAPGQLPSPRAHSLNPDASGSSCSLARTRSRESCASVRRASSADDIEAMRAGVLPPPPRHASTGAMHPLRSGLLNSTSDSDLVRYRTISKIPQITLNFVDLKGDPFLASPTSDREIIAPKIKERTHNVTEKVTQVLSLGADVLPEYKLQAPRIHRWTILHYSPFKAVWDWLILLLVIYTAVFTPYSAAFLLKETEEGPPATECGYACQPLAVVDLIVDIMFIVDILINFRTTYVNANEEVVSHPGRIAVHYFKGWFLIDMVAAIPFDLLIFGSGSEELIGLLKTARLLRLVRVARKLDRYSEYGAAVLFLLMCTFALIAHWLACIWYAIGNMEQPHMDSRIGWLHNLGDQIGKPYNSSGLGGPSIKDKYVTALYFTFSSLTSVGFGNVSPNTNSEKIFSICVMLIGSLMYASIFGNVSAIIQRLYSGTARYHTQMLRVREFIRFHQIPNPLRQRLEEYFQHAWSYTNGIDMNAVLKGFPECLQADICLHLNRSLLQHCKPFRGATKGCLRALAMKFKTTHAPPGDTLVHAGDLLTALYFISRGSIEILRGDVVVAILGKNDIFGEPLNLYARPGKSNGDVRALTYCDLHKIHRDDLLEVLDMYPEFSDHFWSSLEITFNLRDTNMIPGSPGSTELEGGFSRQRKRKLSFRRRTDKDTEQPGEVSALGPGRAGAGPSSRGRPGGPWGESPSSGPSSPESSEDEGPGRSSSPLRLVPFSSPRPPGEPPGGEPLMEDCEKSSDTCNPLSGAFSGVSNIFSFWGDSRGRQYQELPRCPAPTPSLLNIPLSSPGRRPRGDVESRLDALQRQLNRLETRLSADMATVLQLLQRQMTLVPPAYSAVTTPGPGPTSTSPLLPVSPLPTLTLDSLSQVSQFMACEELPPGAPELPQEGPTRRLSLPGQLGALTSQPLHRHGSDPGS

[2] = Effect on locomotor activity in ICR mouse assessed as hypolocomotion at 10 mg/kg, ip measured after 90 mins; type: ADME, organism-based; settings: in vivo, 1.5 h
[3] = target: Glutamate NMDA receptor; test: Positive allosteric modulation of C57BL/6 mouse NMDA receptor assessed as potentiation of NMDA-induced current in presence of saturating glutamate by patch-clamp method; type: tissue-based, Brain
[4] = Effect on locomotor activity in ICR mouse assessed as hyperlocomotion at 10 mg/kg, ip measured after 90 mins; type: ADME, organism-based; settings: in vivo, 1.5 h
[5] = Cytotoxicity against mouse L929 cells assessed as cell growth inhibition at 60 uM measured after 48 hrs by CCK8 assay relative to control; type: cell-based
[6] = target: T1, hERG (KCNH2); test: Inhibition of human ERG expressed in CHO cells at 30 uM with holding potential at -80 to -60 mV for 500s followed by raise in potential at +30 mV for 2 sec and subsequent repolarization to -60 mV for 2 sec by whole-cell patch clamp method relative to control; type: cell-based; settings: CHO cells expressing human ERG
[7] = test system: Mus musculus; test: Antidepressant activity in ICR mouse assessed as decrease in immobility time at 3 to 10 mg/kg, ip measured after 26 mins by forced swim test; type: functional, organism-based; settings: dose 3-10 mg/kg
[8] = Cytotoxicity against mouse L929 cells assessed as cell growth inhibition at 120 uM measured after 48 hrs by CCK8 assay relative to control; type: cell-based
[9] = Cytotoxicity against African green monkey Vero cells assessed as cell growth inhibition at 60 uM measured after 48 hrs by CCK8 assay relative to control; type: cell-based; settings: chlorocebus sabaeus
[10] = test system: Mus musculus; test: Antidepressant activity in ICR mouse aassessed as inhibition of apomorphine-induced climbing behaviour at 10 mg/kg, ip administered prior to APO challenge and measured after 30 mins; type: functional, organism-based
[11] = Cytotoxicity against African green monkey Vero cells assessed as cell growth inhibition at 120 uM measured after 48 hrs by CCK8 assay relative to control; type: cell-based; settings: chlorocebus sabaeus
[12] = Brain to blood partition coefficient of the compound; type: physicochemical, tissue-based; settings: read-out: logBB (converted)
[13] = target: T2, Glutamate NMDA receptor (Mus musculus) (UniProt P35436+Q91ZU9+Q03391+P35438+Q01097+Q01098+A2AIR5); test: Positive allosteric modulation of C57BL/6 mouse NMDA receptor assessed as fold change in compound potentiated NMDA-induced current relative to NMDA current alone at 30 uM measured after 15 to 30 mins by patch-clamp method; type: tissue-based; settings: Brain, filed as positive allosteric modulator, time 15-30 min
[14] = Cytotoxicity against human HEK293 cells assessed as cell growth inhibition at 60 uM measured after 48 hrs by CCK8 assay relative to control; type: cell-based
[15] = target: T2, Glutamate NMDA receptor (Mus musculus); test: Positive allosteric modulation of C57BL/6 mouse NMDA receptor assessed as fold change in compound potentiated NMDA-induced current relative to NMDA current alone in presence of saturating glutamate by patch-clamp method; type: tissue-based; settings: Brain, filed as positive allosteric modulator
[16] = test system: Mus musculus; test: Antidepressant activity in ICR mouse assessed as decrease in immobility time at 30 mg/kg, ip measured after 26 mins by forced swim test; type: functional, organism-based
[17] = Cytotoxicity against human HEK293 cells assessed as cell growth inhibition at 120 uM measured after 48 hrs by CCK8 assay relative to control; type: cell-based
[18] = test system: Mus musculus; test: Antidepressant activity in icv dosed C57BL/6N mouse assessed as decrease in immobility time measured after 36 mins; type: functional, organism-based
[19] = target: T2, Glutamate NMDA receptor (Mus musculus); test: Positive allosteric modulation of C57BL/6 mouse NMDA receptor assessed as potentiation of NMDA-induced current by measuring peak current amplitude at 30 uM measured after 15 to 30 mins by patch-clamp method (reference value: 54.6 +/- 4.6 pA); type: tissue-based; settings: Brain, filed as positive allosteric modulator, time 15-30 min
[20] = target: Glutamate NMDA receptor; GRIN1/GRIN2B (Homo sapiens) (UniProt Q05586+Q13224); test: Positive allosteric modulation of GluN1/GluN2B (unknown origin) expressed in HEK293 cells assessed as enhancement of current induced by […] and glycine at 30 uM by whole-cell patch clamp method; type: cell-based
[21] = target: T2, Glutamate NMDA receptor (Mus musculus); test: Positive allosteric modulation of ICR mouse primary cortical neuron NMDA receptor assessed as potentiation of NMDA-induced current at 10 uM in absence of exogenous glycine/D-serine by whole-cell patch clamp method; type: tissue-based
[22] = test system: Mus musculus; test: Antidepressant activity in icv dosed CSDS-induced C57BL/6N mouse model assessed as reversal of reduction in CSDS-induced social interaction administered for 10 days by social interaction test; type: functional, organism-based; settings: time 10.0 day
[23] = target: Ionotropic glutamate receptor NMDA 1/2C (Homo sapiens) (UniProt Q05586+Q14957); test: Positive allosteric modulation of GluN1/GluN2C (unknown origin) expressed in HEK293 cells assessed as enhancement of current induced by […] and glycine at 30 uM by whole-cell patch clamp method; type: cell-based
[24] = target: T3, Glutamate NMDA receptor; GRIN1/GRIN2A (Homo sapiens) (UniProt Q05586+Q12879); test: Positive allosteric modulation of GluN1/GluN2A (unknown origin) expressed in HEK293 cells assessed as enhancement of current induced by […] and glycine at 30 uM by whole-cell patch clamp method; type: cell-based; settings: filed as positive allosteric modulator
[25] = target: Ionotropic glutamate receptor NMDA 1/2D (Homo sapiens) (UniProt Q05586+O15399); test: Negative allosteric modulation of GluN1/GluN2D (unknown origin) expressed in HEK293 cells assessed as inhibition of current induced by […] and glycine at 30 uM by whole-cell patch clamp method; type: cell-based; settings: filed as negative allosteric modulator
[26] = target: T3, Glutamate NMDA receptor; GRIN1/GRIN2A (Homo sapiens); test: Effect on GluN1/GluN2A (unknown origin) expressed in HEK293 cells assessed as enhancement of glycine-induced current at 30 uM by whole-cell patch clamp method; type: cell-based
[27] = target: T3, Glutamate NMDA receptor; GRIN1/GRIN2A (Homo sapiens); test: Effect on GluN1/GluN2A (unknown origin) expressed in HEK293 cells assessed as enhancement of NMDA-induced current at 30 uM by whole-cell patch clamp method; type: cell-based
[28] = test system: Neuron; test: Effect on GABA receptor in ICR mouse hippocampal neuron assessed as increase in GABA-induced current at 30 uM; type: tissue-based
[29] = target: T2, Glutamate NMDA receptor (Mus musculus); test: Positive allosteric modulation of ICR mouse primary cortical neuron NMDA receptor assessed as potentiation of NMDA-induced current at 10 uM in presence of 30 uM exogenous glycine by whole-cell patch clamp method; type: tissue-based; settings: Brain
[30] = target: T2, Glutamate NMDA receptor (Mus musculus); test: Positive allosteric modulation of ICR mouse primary cortical neuron NMDA receptor assessed as potentiation of NMDA-induced maximum current by whole-cell patch clamp method; type: tissue-based; settings: Brain
[31] = target: Glutamate NMDA receptor; test: Positive allosteric modulation of ICR mouse primary cortical neuron NMDA receptor assessed as potentiation of NMDA-induced current in presence of 30 uM exogenous glycine by whole-cell patch clamp method (reference value: 23.9 +/- 1.3 uM); type: tissue-based, Brain
[32] = test system: Neuron; test: Effect on AMPA receptor in ICR mouse hippocampal neuron assessed as increase in AMPA-induced current at 30 uM; type: tissue-based
[33] = target: Glutamate NMDA receptor; test: Positive allosteric modulation of ICR mouse primary cortical neuron NMDA receptor assessed as potentiation of glycine-induced current in presence of 100 uM NMDA by whole-cell patch clamp method; type: tissue-based, Brain

Row | SMILES | inhibition at 2 s, 100 µM [1] | Activity [2] | EC50 [3] | Activity [4] | inhibition at 48 h, 60 µM [5] | inhibition at 2 s, 30 µM [6] | Activity [7] | inhibition at 48 h, 120 µM [8] | inhibition at 48 h, 60 µM [9] | Activity [10] | inhibition at 48 h, 120 µM [11] | Kp [12] | fold change (FC) [13] | inhibition at 48 h, 60 µM [14] | fold change (FC) [15] | Activity [16] | inhibition at 48 h, 120 µM [17] | Activity [18] | Activity [19] | also measured
1 | Cc1cc(C)n(Cc2ccc(C(=O)Nc3ccc(F)cc3C)s2)n1 | 47.6% | Non-Toxic | 7.8 µM | Non-Toxic | 11.5% | 33.4% | inactive | 23.9% | -1.5% | inactive | 8.7% | 0.794 | 10.1 | 16.3% | 10.2 | Active | 34.4% | – | – | –
2 | CNCCC(Oc1ccc(C(F)(F)F)cc1)c1ccccc1 (centres undefined) | – | – | – | – | – | – | – | – | – | – | – | – | – | – | – | – | – | Active | – | –
3 | Cc1cc(C)n(Cc2ccc(C(=O)Nc3ccc4cc[nH]c4c3)s2)n1 | 46.7% | Non-Toxic | 9 µM | Non-Toxic | 2.8% | 33.6% | – | 25.5% | -3.2% | inactive | -0.4% | 0.316 | 8.9 | -7.4% | 10.5 | inactive | 2.5% | – | – | –
4 | O=C(Nc1ccc(Cl)cc1C(=O)NCCCCO)c1ccco1 | – | – | – | – | – | – | – | – | – | – | – | 0.0776 | 3.5 | – | – | – | – | – | 1320 pA | –
5 | Cc1cc(C)n(Cc2ccc(C(=O)Nc3ccc(-c4cccnc4)cc3)s2)n1 | 53.4% | Non-Toxic | 3.6 µM | Non-Toxic | 27.5% | 44.2% | inactive | 28.6% | -3.8% | inactive | -7.5% | 0.398 | 14.3 | 6.5% | 12.8 | Active | 18% | – | – | –
6 | Cc1cc(C)n(Cc2ccc(C(=O)Nc3ccc(Br)cc3C)o2)n1 | – | – | 8.8 µM | – | – | – | – | – | – | – | – | 0.661 | 32 | – | 3.8 | – | – | Active | 1180 pA | Activity [20]: inactive; Activity [21]: inactive; Activity [22]: Active; Activity [23]: inactive; Activity [24]: Active; Activity [25]: Active; Activity [26]: inactive; Activity [27]: inactive; Activity [28]: inactive; Activity [29]: inactive; Activity [30]: inactive; EC50 [31]: 13.6 µM; Activity [32]: inactive; EC50 [33]: 11.8 µM
